Assay results: ChEMBL document CHEMBL5726285, “Tricyclic compounds as anticancer agents” (2017)

The molecules below were run against Bromodomain-containing protein 4 (Homo sapiens, UniProt O60885) (assay: Time Resolved Fluorescence Resonance Energy Transfer (TR-FRET) Assay: The binding of compounds to bromodomain BRD4 (44-168), BRD4 (333-460), and BRD4 (1-477 or 44-460) was assessed using a time resolved fluorescent resonance energy transfer binding assay (1), that measures the binding of a fluorescently labeled probe molecule to the bromodomain protein. The bromodomain protein, fluorescent probe molecule (either a biotinylated histone peptide or a fluorescently labeled small molecule), and dose-responded test compound are incubated together to reach thermodynamic equilibrium. In the absence of a test compound, the bromodomain and small molecule are bound, resulting in a high fluorescent signal. In the presence of a sufficient concentration of inhibitor, this intercation is disrupted resulting in a lost of fluorescent resonance energy transfer.All assay components were dissolved in buffer composition 20 mM Hepes pH 7.5, 150 mM NaCl, 5 mM DTT, 0.005% Tween 20, and 100 ug/ml BSA for BRD4 (1-477 and 44-460). The final concentrations of the bromodomain proteins are 1.6 nM BRD4(44-168), 1 nM BRD4(333-460), and 1 nM BRD4(1-477 or 44-460), and the fluorescent probe molecule is 100 nM, 50 nM, and 7.5 nM respectively. All proteins were biotinylated. A streptavidin labeled with terbium cryptate (Cisbio SA-Tb) was used as detection, and pre-mixed with the bromodomain protein at a final concentration of 0.2 nM. In some instances for BRD4 (44-460), anti-His terbium cryptate was used as a detection. 7.5 nl of dose-responded test compound or dmso vehicle (0.0375%) was pre-spotted in a black Corning 384 well plate and 10 ul each of bromodomain/detection reagent and fluorescent small molecule solution were added to the plate, and the reaction incubated for 60 min at room temperature. Plates were then read on EnVision plate reader, (λex=340 nm, acceptor λEm=520 nm, and donor λEm=615 nm, LANCE D400 mirror). Time resolved fluorescnce intensity measurements were made at both emissions, and the ratio of acceptor/donor was calculated and used for data analysis.).

**Q.** How did the IC50 turn out when `COc1nnn(C)c1-c1cnc2c3c(OC)ncc(S(C)(=O)=O)c3n([C@H](c3ccccc3)C3CCOCC3)c2c1` was run?
**A.** < 10 nM

**Q.** With `Cc1nnn(C)c1-c1cnc2c3c(NC(C)C)ncc(S(C)(=O)=O)c3n(C(c3ccccc3)C3CCC(F)(F)CC3)c2c1` (stereo not drawn) as the molecule, how does the IC50 read?
**A.** < 10 nM

**Q.** For `Cc1nnn(C)c1-c1cnc2c3c(N(C)C(C)C)ncc(S(C)(=O)=O)c3n(C(c3ccccc3)C3CCC(F)(F)CC3)c2c1` (stereo not drawn), which IC50 is on record?
**A.** < 10 nM

**Q.** How did the IC50 turn out when `Cc1nnn(C)c1-c1cnc2c3ccc(N4CCN(C)CC4)nc3n(C(c3ccccc3)C3CCC(F)(F)CC3)c2c1` (stereo not drawn) was run?
**A.** < 1 nM

**Q.** How did the IC50 turn out when `CNCCN(C)c1ccc2c3ncc(-c4c(C)nnn4C)cc3n(C(c3ccccc3)C3CCC(F)(F)CC3)c2n1` (stereo not drawn) was run?
**A.** < 10 nM

**Q.** How did the IC50 turn out when `Cc1nnn(C)c1-c1cnc2c3c(OC(C)C)ncc(S(C)(=O)=O)c3n(C(c3ccccc3)C3CCC(F)(F)CC3)c2c1` (stereo not drawn) was run?
**A.** < 10 nM

**Q.** Which IC50 does the source give for `Cc1nnn(C)c1-c1cnc2c3c(NCC(C)C)ncc(S(C)(=O)=O)c3n(C(c3ccccc3)C3CCC(F)(F)CC3)c2c1` (stereo not drawn) here?
**A.** < 10 nM

**Q.** Which IC50 does the source give for `COC1CN(c2ncc(S(C)(=O)=O)c3c2c2ncc(-c4c(C)nnn4C)cc2n3C(c2ccccc2)C2CCC(F)(F)CC2)C1` (stereo not drawn) here?
**A.** < 10 nM
